These results are taken from ChEMBL document CHEMBL1201862, “PubChem BioAssay data set” (2004).

Calls of active or inactive are those of the source. How the calls were made is not given here.

In general, Ki refers to a dissociation constant, usually derived from enzyme kinetics or from competition with a known ligand.

The assay has as its target Serine/threonine-protein kinase TBK1 (Homo sapiens, UniProt Q9UHD2). Nature of the assay: Navigating the Kinome. Panel member name: TBK1. The class given is functional.

Chain of Serine/threonine-protein kinase TBK1 (Q9UHD2 whole entry): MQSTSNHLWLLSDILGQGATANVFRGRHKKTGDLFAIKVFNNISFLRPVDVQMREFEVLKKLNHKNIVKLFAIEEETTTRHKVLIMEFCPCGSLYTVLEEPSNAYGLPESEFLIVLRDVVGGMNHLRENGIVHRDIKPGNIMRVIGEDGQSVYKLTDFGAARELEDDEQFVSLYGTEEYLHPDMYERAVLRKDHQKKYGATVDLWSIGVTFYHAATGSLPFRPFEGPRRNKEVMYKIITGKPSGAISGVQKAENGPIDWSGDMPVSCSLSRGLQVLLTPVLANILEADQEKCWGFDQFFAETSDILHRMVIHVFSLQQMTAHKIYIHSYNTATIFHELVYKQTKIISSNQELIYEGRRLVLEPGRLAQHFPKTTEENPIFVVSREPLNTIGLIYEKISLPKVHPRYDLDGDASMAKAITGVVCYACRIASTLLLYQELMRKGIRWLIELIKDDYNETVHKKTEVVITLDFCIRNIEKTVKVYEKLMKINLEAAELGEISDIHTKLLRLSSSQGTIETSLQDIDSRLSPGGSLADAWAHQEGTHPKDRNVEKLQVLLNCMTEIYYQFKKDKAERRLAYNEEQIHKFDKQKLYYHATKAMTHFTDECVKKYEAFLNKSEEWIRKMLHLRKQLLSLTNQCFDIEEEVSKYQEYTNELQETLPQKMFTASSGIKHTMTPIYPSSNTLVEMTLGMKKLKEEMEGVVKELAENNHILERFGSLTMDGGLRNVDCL

As for `O=C1NC(=O)C(c2c[nH]c3ccccc23)=C1c1nc(N2CCNCC2)nc2ccccc12`, the Ki was > 3.16 µM (inactive).
